Laboratory results from PubChem BioAssay (NCI).
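Five concentrations, 48 hours, 96-well plates. GI50 = concentration required for 50% inhibition of growth. TGI: total growth inhibition.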

Experiments:
Assay in all cases: NCI tumour cell line growth inhibition, 48 h
786-0 renal = test system: 786-0 renal
A498 renal = test system: A498 renal
A549 NSCLC = test system: A549 NSCLC
ACHN renal = test system: ACHN renal
BT-549 breast = test system: BT-549 breast
CAKI-1 renal = test system: CAKI-1 renal
CCRF-CEM leukemia = test system: CCRF-CEM leukemia
COLO 205 colon = test system: COLO 205 colon
DU-145 prostate = test system: DU-145 prostate
EKVX NSCLC = test system: EKVX NSCLC
HCC-2998 colon = test system: HCC-2998 colon
HCT-116 colon = test system: HCT-116 colon
HCT-15 colon = test system: HCT-15 colon
HL-60(TB) leukemia = test system: HL-60(TB) leukemia
HOP-62 NSCLC = test system: HOP-62 NSCLC
HOP-92 NSCLC = test system: HOP-92 NSCLC
HS 578T breast = test system: HS 578T breast
HT29 colon = test system: HT29 colon
IGROV1 ovarian = test system: IGROV1 ovarian
K-562 leukemia = test system: K-562 leukemia
KM12 colon = test system: KM12 colon
LOX IMVI melanoma = test system: LOX IMVI melanoma
M14 melanoma = test system: M14 melanoma
MALME-3M melanoma = test system: MALME-3M melanoma
MCF7 breast = test system: MCF7 breast
MDA-MB-231 breast = test system: MDA-MB-231 breast
MDA-MB-435 = test system: MDA-MB-435
MOLT-4 leukemia = test system: MOLT-4 leukemia
NCI-H226 lung = test system: NCI-H226 lung
NCI-H23 lung = test system: NCI-H23 lung
NCI-H460 lung = test system: NCI-H460 lung
NCI-H522 lung = test system: NCI-H522 lung
NCI/ADR-RES ovarian = test system: NCI/ADR-RES ovarian
OVCAR-3 ovarian = test system: OVCAR-3 ovarian
OVCAR-4 ovarian = test system: OVCAR-4 ovarian
OVCAR-5 ovarian = test system: OVCAR-5 ovarian
OVCAR-8 ovarian = test system: OVCAR-8 ovarian
PC-3 prostate = test system: PC-3 prostate
RPMI-8226 leukemia = test system: RPMI-8226 leukemia
RXF 393 renal = test system: RXF 393 renal
SF-268 CNS = test system: SF-268 CNS
SF-295 CNS = test system: SF-295 CNS
SF-539 CNS = test system: SF-539 CNS
SK-MEL-2 melanoma = test system: SK-MEL-2 melanoma
SK-MEL-28 melanoma = test system: SK-MEL-28 melanoma
SK-MEL-5 melanoma = test system: SK-MEL-5 melanoma
SK-OV-3 ovarian = test system: SK-OV-3 ovarian
SN12C renal = test system: SN12C renal
SNB-19 CNS = test system: SNB-19 CNS
SNB-75 CNS = test system: SNB-75 CNS
SR leukemia = test system: SR leukemia
SW-620 colon = test system: SW-620 colon
T-47D breast = test system: T-47D breast
TK-10 renal = test system: TK-10 renal
U251 CNS = test system: U251 CNS
UACC-257 melanoma = test system: UACC-257 melanoma
UACC-62 melanoma = test system: UACC-62 melanoma
UO-31 renal = test system: UO-31 renal

COc1ccc(C(=O)c2cc(OC)c3c(c2)OCO3)cc1O
GI50 (786-0 renal): 933 nM
TGI (786-0 renal): > 100000 nM
GI50 (A498 renal): 2340 nM
TGI (A498 renal): 7500 nM
GI50 (A549 NSCLC): 614 nM
TGI (A549 NSCLC): > 100000 nM
GI50 (ACHN renal): 1570 nM
TGI (ACHN renal): > 100000 nM
GI50 (BT-549 breast): 3060 nM
TGI (BT-549 breast): > 100000 nM
GI50 (CAKI-1 renal): 1410 nM
TGI (CAKI-1 renal): > 100000 nM
GI50 (CCRF-CEM leukemia): 298 nM
TGI (CCRF-CEM leukemia): > 100000 nM
GI50 (COLO 205 colon): 7510 nM
TGI (COLO 205 colon): 21000 nM
GI50 (DU-145 prostate): 340 nM
TGI (DU-145 prostate): 3520 nM
GI50 (EKVX NSCLC): 19800 nM
TGI (EKVX NSCLC): > 100000 nM
GI50 (HCC-2998 colon): 1720 nM
TGI (HCC-2998 colon): > 31500 nM
GI50 (HCT-116 colon): 345 nM
TGI (HCT-116 colon): 9190 nM
GI50 (HCT-15 colon): 112 nM
TGI (HCT-15 colon): > 100000 nM
GI50 (HL-60(TB) leukemia): 119 nM
TGI (HL-60(TB) leukemia): 2240 nM
GI50 (HOP-62 NSCLC): 383 nM
TGI (HOP-62 NSCLC): > 54200 nM
GI50 (HOP-92 NSCLC): 824 nM
TGI (HOP-92 NSCLC): 52700 nM
GI50 (HS 578T breast): 190 nM
TGI (HS 578T breast): > 32100 nM
GI50 (HT29 colon): 3180 nM
TGI (HT29 colon): > 57200 nM
GI50 (IGROV1 ovarian): 1180 nM
TGI (IGROV1 ovarian): > 100000 nM
GI50 (K-562 leukemia): 45.9 nM
TGI (K-562 leukemia): > 100000 nM
GI50 (KM12 colon): 50.5 nM
TGI (KM12 colon): 2640 nM
GI50 (LOX IMVI melanoma): 180 nM
TGI (LOX IMVI melanoma): > 100000 nM
GI50 (M14 melanoma): 47.3 nM
TGI (M14 melanoma): 5220 nM
GI50 (MALME-3M melanoma): 6720 nM
TGI (MALME-3M melanoma): > 100000 nM
GI50 (MCF7 breast): 332 nM
TGI (MCF7 breast): 64000 nM
GI50 (MDA-MB-231 breast): 572 nM
TGI (MDA-MB-231 breast): > 100000 nM
GI50 (MDA-MB-435): 22.1 nM
TGI (MDA-MB-435): 60.3 nM
GI50 (MOLT-4 leukemia): 617 nM
TGI (MOLT-4 leukemia): > 100000 nM
GI50 (NCI-H226 lung): 2490 nM
TGI (NCI-H226 lung): 8810 nM
GI50 (NCI-H23 lung): 248 nM
TGI (NCI-H23 lung): > 24800 nM
GI50 (NCI-H460 lung): 299 nM
TGI (NCI-H460 lung): 9450 nM
GI50 (NCI-H522 lung): 25.9 nM
TGI (NCI-H522 lung): 105 nM
GI50 (NCI/ADR-RES ovarian): 43.6 nM
GI50 (OVCAR-3 ovarian): 213 nM
TGI (OVCAR-3 ovarian): 481 nM
GI50 (OVCAR-4 ovarian): 1720 nM
TGI (OVCAR-4 ovarian): > 100000 nM
GI50 (OVCAR-5 ovarian): 4490 nM
TGI (OVCAR-5 ovarian): > 100000 nM
GI50 (OVCAR-8 ovarian): 387 nM
TGI (OVCAR-8 ovarian): > 100000 nM
GI50 (PC-3 prostate): 908 nM
TGI (PC-3 prostate): > 100000 nM
GI50 (RPMI-8226 leukemia): 309 nM
TGI (RPMI-8226 leukemia): > 44000 nM
GI50 (RXF 393 renal): 215 nM
TGI (RXF 393 renal): 674 nM
GI50 (SF-268 CNS): 287 nM
TGI (SF-268 CNS): 16100 nM
GI50 (SF-295 CNS): 832 nM
TGI (SF-295 CNS): > 100000 nM
GI50 (SF-539 CNS): 199 nM
TGI (SF-539 CNS): 3070 nM
GI50 (SK-MEL-2 melanoma): 346 nM
TGI (SK-MEL-2 melanoma): 34400 nM
GI50 (SK-MEL-28 melanoma): 457 nM
TGI (SK-MEL-28 melanoma): > 100000 nM
GI50 (SK-MEL-5 melanoma): 261 nM
TGI (SK-MEL-5 melanoma): 1710 nM
GI50 (SK-OV-3 ovarian): 200 nM
TGI (SK-OV-3 ovarian): 1580 nM
GI50 (SN12C renal): 1090 nM
TGI (SN12C renal): > 100000 nM
GI50 (SNB-19 CNS): 377 nM
TGI (SNB-19 CNS): > 100000 nM
GI50 (SNB-75 CNS): 166 nM
TGI (SNB-75 CNS): 34600 nM
GI50 (SR leukemia): 42.3 nM
TGI (SR leukemia): > 100000 nM
GI50 (SW-620 colon): 57.7 nM
TGI (SW-620 colon): > 100000 nM
GI50 (T-47D breast): 883 nM
TGI (T-47D breast): > 100000 nM
GI50 (TK-10 renal): 5700 nM
TGI (TK-10 renal): 99400 nM
GI50 (U251 CNS): 315 nM
TGI (U251 CNS): > 100000 nM
GI50 (UACC-257 melanoma): 1130 nM
TGI (UACC-257 melanoma): > 79500 nM
GI50 (UACC-62 melanoma): 946 nM
TGI (UACC-62 melanoma): > 100000 nM
GI50 (UO-31 renal): 3640 nM
TGI (UO-31 renal): > 100000 nM
